US20070117851A1, “Liquid pharmaceutical compositions of nimodipine” (TRANSFORM PHARMACEUTICALS, INC., priority 2005, published 2007)
In brackets after ≈: the same amount, converted by molar mass.

Key:
[1] = Chemical stability of nimodipine in the Table 2 composition via HPLC; assay type: physicochemical
Description: The chemical stability of nimodipine was measured at 40 and 60 degrees C. via HPLC in a composition described in Table 2.
FIGS. 1 and 2 show the chemical stability of nimodipine in the composition described in Table 2 at 40 and 60 degrees C., respectively. These Figures show data acquired with compositions having a pH of 5, 6, and 7, over a period of four weeks. […] Subsequent data has also been acquired over a period of 8 weeks.

[2] = Nimodipine equilibrium solubility in alcohol/solvent/water mixtures; assay type: physicochemical; settings: 10% ethanol
Description: The effect of several alcohol and solvent concentrations on nimodipine solubility in water was studied. Nimodipine equilibrium solubility was tested at room temperature with the following solutions: • 1. Various % (v/v) of ethanol in 10 mM pH 6.8 citrate buffer • 2. Various % (w/w) of Cremophor® EL in 10 mM pH 6.8 citrate buffer • 3. Various % (v/v) of ethanol with 30% (w/w) Cremophor® EL in 10 mM pH 6.8 citrate buffer • 4. Various % (w/w) of propylene glycol (PG) in the solution of 30% Cremophor™ EL and 10% ethanol in citrate buffer at pH 6.8 • 5. Various % (w/w) of propylene glycol (PG) in the solution of 20% Cremophor® EL and 10% ethanol in citrate buffer at pH 6.8 • 6. Various % (w/w) of PEG 400 in the solution of 20% Cremophor® EL and 10% ethanol in citrate buffer at pH 6.8 • 7. Various % (w/w) of PEG400 in the solution of 30% Cremophor® EL and 10% ethanol in citrate buffer at pH 6.8 • 8. Various % (w/w) of mixture of PG/PEG400 at 1:1 (w/w) in the solution of 30% Cremophor® EL and 10% ethanol in citrate buffer at pH6.8 The above solutions were prepared by weight except solution 1 which the percent ethanol was mixed with citrate buffer by volume. […] Concentration of each sample was determined by HPLC based on a standard curve and the dilution factor of each samples solution. […]

COCCOC(=O)C1=C(C)NC(C)=C(C(=O)OC(C)C)C1c1cccc([N+](=O)[O-])c1 (centres unmarked) [nimodipine, 1,4-dihydro-2,6-dimethyl-4-(3-nitrophenyl)-3,5-pyridinedicarboxylic acid 2-methoxyethyl 1-methylethyl ester]
nimodipine stability ([1]; Table 2 composition (3.0 mg/mL), 40 degrees C, pH 5, 6 and 7, four weeks, HPLC): greater than 99%
nimodipine stability ([1]; Table 2 composition (3.0 mg/mL), 60 degrees C, pH 5, 6 and 7, four weeks, HPLC): greater than 99%
nimodipine stability ([1]; Table 2 composition, 60 degrees C, pH=7, 8 weeks): greater than 99%
nimodipine solubility compared with the composition comprising 30% ethanol and 30% Cremophor EL ([2]; 30% PEG 400, FIG. 7): comparable
solubility at 24 h ([2]; aqueous with cosolvent or surfactant or cyclodextrin, thermodynamic from solid, 30% Cremophor EL, 30% PEG 400 in citrate buffer pH 6.8, room temperature, 24 hours): ~14 mg/mL (≈ 33.5 mM)
